Read-outs that look alike come from different tables or passages of the source.
How the values were obtained:
[1] = biological target: T1, human ghrelin receptor (GRLN, growth hormone secretagogue receptor, hGHS-R1a) (Homo sapiens, UniProt Q92847); experiment: Competitive radioligand binding assay (ghrelin receptor), Method B1
T1 construct: purchased PerkinElmer BioSignal #RBHGHSM, lot#1887; host or cells: HEK-293 cells, stably transfected (membranes)
Procedure, shortened: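 Filtration competition format: bound radioactivity counted after GF/C harvesting and cold 50 mM Tris-HCl washes. Incubation lasted 30 min at room temperature in Hepes pH 7.4 buffer with Ca2+, Mg2+, EDTA and 0.4% BSA (DMSO ≤0.1% final); values from variable-slope non-linear regression.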

[2] = biological target: T2, GHS-R1a receptor (HEK293 cells expressing GHS-R1a receptor) (Homo sapiens, UniProt Q92847); experiment: Fluorescence functional assay (ghrelin receptor), Method B2, agonist and antagonist mode; format: cell-based; conditions: functional activity as an antagonist at the ghrelin receptor, Methods B2 and B3
T2 construct: host or cells: HEK293
Procedure, shortened: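 Calcium flux read by ImageTrak epifluorescence in HEK293 cells stably expressing GHS-R1a, loaded 1 h at 37 °C with Calcium-3 dye; buffer HBSS/20 mM Hepes, pH 7.4, with probenecid and BSA. Agonists injected after 10 s baseline, read 50 s more; antagonists 3 min. Sigmoidal fits gave EC50 or IC50.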

CYP2D6 [3] = biological target: T3, CYP2D6 (Homo sapiens, UniProt P10635); experiment: Cytochrome P450 inhibition, Method B6; conditions: read-out: IC50 CYP 2D6; Table 4b; dextromethorphan used as substrate
CYP3A4 [4] = biological target: T4, CYP3A4 (Homo sapiens, UniProt P08684); experiment: Cytochrome P450 inhibition, Method B6 (two substrates); conditions: read-out: IC50 CYP 3A4; Table 4b; midazolam used as substrate
[5] = Metabolic stability in human liver microsomes, Method B8; format: in vitro ADME; conditions: human liver microsomes 0.8 mg/mL, 5 μM compound, 37° C.
Source text: B8. Metabolic Stability in Human Liver Microsomes
The liver is the primary site for phase I (oxidation) and phase II (glucuronidation) enzymatic activity responsible for xenobiotic metabolism. Human liver microsomes are used as in vitro screen of metabolic activity for candidate drugs. Similar studies can be run with microsomes from other species, such as those used for in vivo studies, to determine any significant species differences in the stability profile. The aim of this study was to measure the broad-spectrum metabolic stability of representative compounds of the invention. The key aspects of the experimental design are summarized below: • Human liver microsomes (mixed pool of 15 male and female donors) were purchased from In Vitro Technologies (Baltimore, Md.). • Microsomes characterized for phase I (Cyp2A6, 2D6, 2E1, 1A2, 2C19, 3A4, 4A) and phase II (glucuronidation) enzymatic activity. • Assays are performed using a final concentration of 0.8 mg/mL of microsomes in 100 mM potassium phosphate buffer (1.5 mM NADPH, 8 mM MgCl2, pH 7.4, 37° C.). • Compounds are tested in duplicate samples at a single concentration of 5 μM (0.05% DMSO). • Test articles are incubated with the microsomes at 37° C.

[6] = tested on: rat stomach fundus strips; experiment: Ex-vivo potency evaluation on the rat stomach fundus (inhibition of ghrelin-induced contractility), Method B10; conditions: EFS
Protocol: B10. Ex-vivo Potency Evaluation on the Rat Stomach Fundus
Fundus strips (approximately 0.4×1 cm) were cut from the stomach of adult male Wistar rats parallel to the circular muscle fibers. They were placed between two platinum ring electrodes, 1 cm apart (Radnoti, ADlnstruments, USA) in 10 ml tissue baths containing Krebs solution bubbled with 5% CO2 in O2 and maintained at 37° C. Tissues were suspended under 1.5 g resting tension. Changes of tension were measured isometrically with force transducers and recorded with a PowerLab 8/30 data acquisition system (ADlnstruments, USA). Tissues were allowed to equilibrate for 60 min during which time bath solutions were changed every 15 min.
EFS was achieved by applying 0.5 ms pulses, 5 Hz frequency, at a maximally effective voltage of 70 V. EFS was applied for 30 sec at 3 min intervals for a 30 min initial period. This initial period was separated by a […] interval with wash out of the bath solution. Then, a second period of stimulation was started. […] Responses to the agents were measured and expressed as % of the mean of three or four pre-drug responses to EFS. All compounds were dissolved at 1 mM in distilled water or MeOH, as stock solutions.
IC50 values for the inhibition of ghrelin-induced contractility by representative compounds of the invention are presented in Table 7.

CYP2D6 [7] = biological target: T3, CYP2D6; experiment: biochemical
CYP3A4 [8] = biological target: T4, CYP3A4; experiment: biochemical
[9] = biological target: T5, ghrelin receptor (HEK-GHSR1 stable cells) (Homo sapiens, UniProt Q92847); experiment: Ghrelin receptor inverse agonist assay (HTRF IP-one), Method B4; format: cell-based; conditions: inverse agonist at the ghrelin receptor, Method B4
T5 construct: expressed in transfected cells
Procedure, shortened: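 HEK cells stably expressing GHSR1, seeded at 100 000 cells/well overnight, exposed to compound for 30 min at 37° C. Cells then lysed and IP1 accumulation measured by HTRF (d2 plus anti-IP1 cryptate, 1 h at room temp). Wells lacking d2 served as negative control.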

[10] = cited from earlier work
[11] = Ghrelin receptor binding activity, Method B1

T3 sequence (P10635 whole entry): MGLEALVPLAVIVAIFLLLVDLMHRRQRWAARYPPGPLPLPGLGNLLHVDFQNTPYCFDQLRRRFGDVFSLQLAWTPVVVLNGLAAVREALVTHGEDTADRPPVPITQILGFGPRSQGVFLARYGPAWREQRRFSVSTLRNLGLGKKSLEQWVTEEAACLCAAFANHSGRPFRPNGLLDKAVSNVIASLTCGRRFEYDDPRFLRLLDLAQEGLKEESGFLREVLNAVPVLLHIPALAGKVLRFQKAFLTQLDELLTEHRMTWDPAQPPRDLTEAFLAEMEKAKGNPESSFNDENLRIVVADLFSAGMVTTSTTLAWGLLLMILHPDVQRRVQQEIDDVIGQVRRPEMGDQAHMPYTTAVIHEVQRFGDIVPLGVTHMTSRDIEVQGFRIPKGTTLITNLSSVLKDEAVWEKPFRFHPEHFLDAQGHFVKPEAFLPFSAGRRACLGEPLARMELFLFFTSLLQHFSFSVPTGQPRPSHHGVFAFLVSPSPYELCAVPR
T1 sequence (Q92847 whole entry): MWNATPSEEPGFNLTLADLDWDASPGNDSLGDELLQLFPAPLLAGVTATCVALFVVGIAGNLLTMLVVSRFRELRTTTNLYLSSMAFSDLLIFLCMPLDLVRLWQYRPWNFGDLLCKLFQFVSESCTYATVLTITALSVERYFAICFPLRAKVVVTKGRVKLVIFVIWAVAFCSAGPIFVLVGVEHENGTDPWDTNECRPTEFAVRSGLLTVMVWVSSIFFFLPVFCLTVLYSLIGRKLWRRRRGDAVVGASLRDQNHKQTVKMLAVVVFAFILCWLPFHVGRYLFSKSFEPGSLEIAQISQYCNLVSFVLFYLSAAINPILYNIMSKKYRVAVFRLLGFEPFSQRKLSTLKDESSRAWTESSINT
T2 sequence (Q92847 whole entry): as above
T4 sequence (P08684 whole entry): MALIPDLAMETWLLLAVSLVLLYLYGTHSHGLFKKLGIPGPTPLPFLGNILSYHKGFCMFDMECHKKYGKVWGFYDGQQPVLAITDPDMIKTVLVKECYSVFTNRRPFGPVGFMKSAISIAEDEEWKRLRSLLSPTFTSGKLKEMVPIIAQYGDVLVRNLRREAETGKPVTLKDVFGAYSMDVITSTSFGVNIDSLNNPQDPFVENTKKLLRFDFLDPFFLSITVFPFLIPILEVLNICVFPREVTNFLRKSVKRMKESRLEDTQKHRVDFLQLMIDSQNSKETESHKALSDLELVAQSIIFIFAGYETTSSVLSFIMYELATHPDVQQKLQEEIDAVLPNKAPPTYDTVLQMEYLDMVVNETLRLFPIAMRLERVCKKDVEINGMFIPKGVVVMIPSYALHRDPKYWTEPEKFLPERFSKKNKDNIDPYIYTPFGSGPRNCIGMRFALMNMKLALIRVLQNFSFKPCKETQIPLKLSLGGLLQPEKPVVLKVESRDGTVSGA
T5 sequence (Q92847 whole entry): as the sequence (Q92847 whole entry) above

Row | SMILES | Antagonist Activity [2] | IC50 (CYP2D6 [3]) [nM] | IC50 (CYP3A4 [4]) [nM] | HLM, metabolic stability in human liver microsomes [5] [μL/min/mg protein] | also measured
1 | CCC(C)[C@@H]1NCCOc2ccccc2/C=C/CNC(=O)[C@@H](Cc2ccccc2)NC(=O)[C@H](C(C)O)N(C)C1=O (some centres unmarked) [Compound 1318] | C (C = 10-100 nM) | > 5000 | 3900 |  | IC50 [1, 11]: 10 to 100 nM; Ki [1, 11]: 1 to 10 nM
2 | CC(C)[C@@H]1NCCOc2ccccc2/C=C/CNC(=O)[C@@H](Cc2ccccc2)NC(=O)[C@H](C(C)O)N(C)C1=O (some centres unmarked) [Compound 1319] |  |  |  | 26.5 | IC50 [1]: 10 to 100 nM; Ki [1]: 1 to 10 nM; IC50 [6]: 72 nM; IC50 (CYP2D6 [7]): 19100 nM; IC50 (CYP3A4 [8]): 8000 nM
3 | COC(C)[C@@H]1NCCOc2ccccc2/C=C/CNC(=O)[C@@H](Cc2ccccc2)NC(=O)[C@H](C(C)O)N(C)C1=O (some centres unmarked) [Compound 1324] | D (D = 100-500 nM) | > 5000 | > 5000 |  | Ki [1, 11]: 10 to 100 nM
4 | CCC(C)[C@@H]1NCCOc2ccccc2/C=C/CNC(=O)[C@@H](Cc2ccccc2F)NC(=O)[C@H](C(C)O)N(C)C1=O (some centres unmarked) [Compound 1325] | C (C = 10-100 nM) | > 5000 | > 3100 |  | IC50 [1, 11]: 10 to 100 nM; Ki [1, 11]: 10 to 100 nM; IC50 [6]: 29 nM
5 | CCC(C)[C@@H]1NCCOc2ccccc2/C=C/CNC(=O)[C@@H](Cc2cccc(F)c2)NC(=O)[C@H](C(C)O)N(C)C1=O (some centres unmarked) [Compound 1326] | C (C = 10-100 nM) |  |  |  | IC50 [1]: 10 to 100 nM; Ki [1]: 1 to 10 nM; IC50 (CYP2D6 [7]): > 5000 nM; IC50 (CYP3A4 [8]): 2200 nM
6 | CCC(C)[C@@H]1NCCOc2ccccc2/C=C/CNC(=O)[C@@H](Cc2ccc(C(F)(F)F)cc2)NC(=O)[C@H](C(C)O)N(C)C1=O (some centres unmarked) [Compound 1327] |  |  |  |  | IC50 [1]: 10 to 100 nM; Ki [1]: 1 to 10 nM; IC50 (CYP2D6 [7]): > 25000 nM; IC50 (CYP3A4 [8]): > 17700 nM
7 | CCC(C)[C@@H]1NCCOc2ccccc2C[C@H](O)CNC(=O)[C@@H](Cc2ccccc2)NC(=O)[C@H](C(C)O)N(C)C1=O (some centres unmarked) [Compound 1340] |  |  |  |  | IC50 [1]: 10 to 100 nM; Ki [1]: 10 to 100 nM; IC50 (CYP2D6 [7]): 13300 nM; IC50 (CYP3A4 [8]): 17200 nM
8 | CC(C)[C@@H]1NCCOc2ccccc2/C=C/CNC(=O)[C@@H](Cc2cccc(O)c2)NC(=O)[C@H](C(C)O)N(C)C1=O (some centres unmarked) [Compound 1350] | C (C = 10-100 nM) | 7900 | 5700 |  | 
9 | CCC(C)[C@@H]1NCCOc2ccccc2CC[C@@H](C)NC(=O)[C@@H](Cc2ccccc2)NC(=O)[C@H](C(C)O)N(C)C1=O (some centres unmarked) [Compound 1358] | C (C = 10-100 nM) | > 20000 | 1600 |  | 
10 | CC(C)[C@@H]1NCCOc2ccccc2CC[C@@H](C)NC(=O)[C@@H](Cc2c[nH]c3ccccc23)NC(=O)[C@H](C(C)O)N(C)C1=O (some centres unmarked) [Compound 1375] | B (B = 1-10 nM) | > 20000 | 8800 | 58.4 | 
11 | CC(C)[C@@H]1NCCOc2ccccc2CC[C@@H](C)NC(=O)[C@@H]([C@@H](C)c2ccccc2)NC(=O)[C@H](C(C)O)N(C)C1=O (some centres unmarked) [Compound 1390] | C (C = 10-100 nM) |  |  | 53 | IC50 (CYP2D6 [7]): > 20000 nM; IC50 (CYP3A4 [8]): 6900 nM
12 | CC(C)[C@@H]1NCCOc2ccccc2CC[C@@H](C)NC(=O)[C@@H](Cc2ccsc2)NC(=O)[C@H](C(C)O)N(C)C1=O (some centres unmarked) [Compound 1399] | B (B = 1-10 nM) | > 20000 | 2300 |  | 
13 | CC(C)[C@@H]1NCCOc2ccccc2CC[C@@H](C)NC(=O)[C@@H](Cc2ccc3ccccc3n2)NC(=O)[C@H](C(C)O)N(C)C1=O (some centres unmarked) [Compound 1413] | B (B = 1-10 nM) | 14700 | 1000 |  | 
14 | COc1ccccc1C[C@H]1NC(=O)[C@H](C(C)O)N(C)C(=O)[C@H](C(C)C)NCCOc2ccccc2CC[C@@H](C)NC1=O (some centres unmarked) [Compound 1418] | B (B = 1-10 nM) | 14500 | 900 | 32.2 | 
15 | CC(C)[C@@H]1NCCOc2ccc(F)cc2CC[C@@H](C)NC(=O)[C@@H](Cc2c[nH]c3ccccc23)NC(=O)[C@H](C(C)O)N(C)C1=O (some centres unmarked) [Compound 1428] |  | 9100 | 800 |  | 
16 | CC(C)[C@@H]1NCCOc2cccc(F)c2CC[C@@H](C)NC(=O)[C@@H](Cc2c[nH]c3ccccc23)NC(=O)[C@H](C(C)O)N(C)C1=O (some centres unmarked) [Compound 1429] |  | > 20000 | 700 |  | 
17 | CC(C)[C@@H]1NCCOc2ccccc2/C=C/CNC(=O)[C@@H](Cc2cccc(Cl)c2)NC(=O)[C@H](C(C)O)N(C)C1=O (some centres unmarked) [Compound 1432] | B (B = 1-10 nM) | 5200 | 1200 | 25.1 | 
18 | CC(O)[C@H]1C(=O)N[C@H](Cc2ccc(Cl)cc2)C(=O)NC/C=C/c2ccccc2OCCN[C@@H](C2(C)CC2)C(=O)N1C (some centres unmarked) [Compound 1729] | B (B = 1-10 nM) |  | 1900 | 54.8 | IC50 [1, 11]: 1 to 10 nM; IC50 [9]: 50 to 100 nM
19 | CC[C@@H]1NCCOc2ccccc2/C=C/CNC(=O)[C@@H](Cc2ccc(Cl)cc2)NC(=O)[C@H](C(C)O)N(C)C1=O (some centres unmarked) [Compound 1732] |  |  | 2900 | 52.2 | IC50 [1, 11]: 10 to 100 nM; IC50 [9]: 100 to 500 nM
20 | C=C[C@H]1C[N@@]2CC[C@H]1C[C@H]2[C@H](O)c1ccnc2ccc(OC)cc12 [quinine] |  |  |  |  | known plasma protein binding value ([10]; reference controls): ~35%
21 | CC(=O)CC(c1ccccc1)c1c(O)c2ccccc2oc1=O (centres unmarked) [warfarin] |  |  |  |  | known plasma protein binding value ([10]; plasma): ~98%
